Measured values: article PMC7785802, “Therapeutic Efficacy of a Trichinella Spiralis Paramyosin-Derived Peptide Modified With a Membrane-Targeting Signal in Mice With Antigen-Induced Arthritis” (Frontiers in Microbiology, 2020)

How the values were obtained:
[1] = system: normal mouse knee joint cavity; assay: Peptide retention in normal mouse joint cavities (immunofluorescence); type: in vivo; details: biotin-labeled peptide, 10 μg in 10 μl PBS intraarticular, normal mice; for staining of joint cavity after intraarticular injection: 12, 24, 48 h, streptavidin-FITC, one mouse per time point
Method: As previous studies reported, immunofluorescence assay was used to assess the retention time of the peptides in normal mouse joint cavities (Williams et al., [2004]). The normal mice were divided into original and modified peptide groups and treated with the corresponding peptides [10 μg in 10 μl PBS by intraarticular (IA) injection respectively. At 12, 24, and 48 h after injection, a single mouse from each group was randomly chosen and sacrificed under anesthesia (1% sodium pentobarbital, 50 mg/kg)]. Knee joints were dissected, fixed in 4% paraformaldehyde, and decalcified with decalcification solution (0.5 M EDTA, pH 8.0) before embedding in paraffin. Midsagittal serial sections (7 μm in thickness) were cut and peptide retention was assessed using streptavidin-FITC (eBioscience) (1:100 in PBS) followed by fluorescent microscopy (Leica).
Figure 4 Retention time of the modified peptide in the joint cavities was prolonged. The biotin-labeled original or modified peptide was injected into the knee joint and then the knee joints were dissected at 12, 24, and 48 h and probed with streptavidin-FITC in immunofluorescence assays.

[2] = system: mice with antigen-induced arthritis (AIA); assay: Histology (HE) of AIA knee joints; type: in vivo, mouse; details: for synovial histology (HE): 40 μg peptide + 25 μg mBSA intraarticular, day 3 post-AIA induction, n = 6
Method: (§1) AIA was induced in male C57BL/6J wildtype mice (8–10 weeks of age) according to a previously described protocol (Ebbinghaus et al., [2017]) with minor modifications. Briefly, the mice were intraperitoneally injected with 200 ng pertussis toxin (List Biological Laboratories, California, USA) prior to being subcutaneously immunized with 100 μg methylated bovine serum albumin (mBSA; Sigma-Aldrich, St. Louis, Missouri, USA) emulsified in Freund's complete adjuvant (Sigma-Aldrich). The immune response was boosted with identical subcutaneous mBSA immunizations at 14 and 21 days after the first immunization. At 28 days after the initial immunization, the right knee joint of each mouse was intraarticularly injected with 10 μl PBS as the control, while the left knee joint received either 10 μl PBS only (normal group), 25 μg mBSA (to induce AIA) in 10 μl PBS (AIA-only group), 40 μg modified peptide with 25 μg mBSA in 10 μl PBS (modified peptide+AIA group), or 40 μg original peptide with 25 μg mBSA in 10 μl PBS (original peptide+AIA group). Every day after AIA induction (and intraarticular peptide treatment), the difference in the joint diameter (swelling in mm) between the right and left knee joints in each mouse was assessed using a digital micrometer to evaluate the AIA severity. Each joint was measured three times and the mean diameter was calculated and recorded. […]
To assess the therapeutic effects of the peptides on AIA, the mice were euthanized on day 3 post-AIA induction. […] The degree of histopathologic tissue damage was quantified using the following previously described cumulative score for evaluating disease severity (Durigutto et al., [2013]). […] Additionally, according to the immunofluorescence protocol, tissue deposition of MAC was assessed by immunofluorescence assay with incubating rabbit anti-mouse C9 IgG (Sigma-Aldrich) at a 1:200 dilution overnight at 4°C followed by incubation with FITC-labeled goat anti-rabbit IgG (DAKO, Glostrup, Denmark) at a 1:200 dilution for an additional 60 min at room temperature (Lei et al., [2020]). […]

[3] = system: membrane attack complex (MAC); assay: MAC (C9) deposition in AIA knee joints (immunofluorescence); type: in vivo; details: 40 μg peptide + 25 μg mBSA intraarticular; day 3 post-AIA induction; anti-mouse C9 immunofluorescence; n = 6
Method: as §1, with “At 28 days after the initial immunization, the right knee joint of each mouse was intraarticularly injected with 10 μl PBS as the control, while the left knee joint received either 10 μl PBS only (normal group), 25 μg mBSA (to induce AIA) in 10 μl PBS (AIA-only group), 40 μg modified peptide with 25 μg mBSA in 10 μl PBS (modified peptide+AIA group), or 40 μg original peptide with 25 μg mBSA in 10 μl PBS (original peptide+AIA group).” left out
To assess the therapeutic effects of the peptides on AIA, the mice were euthanized on day 3 post-AIA induction. […] The degree of histopathologic tissue damage was quantified using the following previously described cumulative score for evaluating disease severity (Durigutto et al., [2013]). […]

mouse ATDC5 cells = assay: Peptide binding to cell surface, confocal laser scanning microscopy; type: cell-based; details: biotin-labeled peptide 260 nmol, 540 nmol, 1.08 mmol; streptavidin-FITC, DAPI
From the text: The mouse ATDC5 chondrogenic cell line is an important chondrocyte model that has been widely used in the study of chondrocyte proliferation and differentiation. This cell line was used to evaluate the membrane-binding ability of the modified peptide, as articular cartilage (which contains chondrocytes) is one of the main cellular components in the joint cavity. The cells were purchased from Guangzhou Jennio Biotech Co., Ltd. (Guangzhou, China) and maintained in Dulbecco's Modified Eagle Medium (DMEM, ThermoFisher, America) supplemented with 10% fetal bovine serum (FBS, Gibco, Australia) at 37°C in a humidified atmosphere with 5% CO2. The 5th−10th passages of the cells were used in the study.
To assess the binding ability of the modified peptide to the cell membrane, the three peptides were labeled with biotin at the C-terminus. […] The cells were washed and resuspended in PBS and then the binding of the peptides to the cell membrane was assessed by flow cytometry (BD Biosciences, California, USA). […] The binding of the peptides to the cell membrane was then assessed by staining with streptavidin-FITC (eBioscience). […] They were then analyzed by confocal laser scanning microscopy (Leica, Germany).
Figure 3 Modified peptide non-specifically bound to the cell surface. (A) Binding of peptides to the surface of mouse ATDC5 cells measured by flow cytometry. […]

| Substance | staining of joint cavity after intraarticular injection [1] | synovial histology (HE) [2] | MAC deposition in synovial connective tissue [3] | binding to surface of ATDC5 cells (confocal microscopy) (mouse ATDC5 cells) | retention time on synovial lining ([1]; 48 h is last time point) [h] | histopathological scores ([2]; 40 μg peptide intraarticular at the time of AIA induction, cumulative score (synovial hyperplasia, leukocyte infiltration, fibrosis), no numbers given) |
| --- | --- | --- | --- | --- | --- | --- |
| VSMGKSLSSKVYVM [original peptide, tetradecapeptide derived from Trichinella spiralis paramyosin (Ts-pmy)] | no staining | severe edema, hyperplasia, and inflammatory cell infiltration compared to normal joints | clearly detected |  |  |  |
| Myr-GSSKSPSKKKKKKPG-ACP-VSMGKSLSSKVYVM [modified peptide, Ts-pmy-derived peptide modified with a membrane-targeting signal] | intense staining along the synovial lining even at 48 h after injection | milder synovial hyperplasia and inflammatory cell infiltration compared to the AIA-only or original peptide+AIA mice | significantly weaker | could bind to the surface of mouse ATDC5 cells | ≥ 48 | significantly decreased |
